Assay results: PubChem BioAssay (NCI)
Values joined by “and” are separate entries in the source; they are usually repeats but may differ in a detail not shown here. Identical values can stand only once.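 Results reflect a 48-hour exposure of cells in 96-well plates to compound at five concentrations. GI50 marks 50% less growth. Definition used: TGI = concentration required for complete inhibition of growth.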

Legend:
Assay in all cases: growth of human tumour cells (NCI), 48 h
SF-268 CNS = system: SF-268 CNS
EKVX NSCLC = system: EKVX NSCLC
OVCAR-5 ovarian = system: OVCAR-5 ovarian
ACHN renal = system: ACHN renal
UO-31 renal = system: UO-31 renal
OVCAR-4 ovarian = system: OVCAR-4 ovarian
HCT-116 colon = system: HCT-116 colon
UACC-257 melanoma = system: UACC-257 melanoma
SK-MEL-2 melanoma = system: SK-MEL-2 melanoma
SK-OV-3 ovarian = system: SK-OV-3 ovarian
LOX IMVI melanoma = system: LOX IMVI melanoma
SN12K1 renal = system: SN12K1 renal
786-0 renal = system: 786-0 renal
HL-60(TB) leukemia = system: HL-60(TB) leukemia
HOP-18 NSCLC = system: HOP-18 NSCLC
M14 melanoma = system: M14 melanoma

O=CC(NC(=O)N(CCCl)N=O)C(O)C(O)C(O)CO (configuration not stated)
GI50 (SF-268 CNS): 19.8 µM and 137 µM | GI50 (EKVX NSCLC): > 625 µM | TGI (EKVX NSCLC): > 1250 µM | GI50 (OVCAR-5 ovarian): > 625 µM | TGI (OVCAR-5 ovarian): > 1250 µM | TGI (ACHN renal): > 1250 µM | TGI (UO-31 renal): > 1250 µM | GI50 (OVCAR-4 ovarian): > 625 µM | TGI (OVCAR-4 ovarian): > 1250 µM | GI50 (HCT-116 colon): 302 µM and 1030 µM and 467 µM | TGI (HCT-116 colon): 625 µM and > 1250 µM and > 992 µM | GI50 (UACC-257 melanoma): > 625 µM | TGI (UACC-257 melanoma): > 1250 µM | GI50 (SK-MEL-2 melanoma): > 625 µM | TGI (SK-MEL-2 melanoma): > 1250 µM | GI50 (SK-OV-3 ovarian): 279 µM | TGI (SK-OV-3 ovarian): 576 µM and > 1250 µM | GI50 (LOX IMVI melanoma): 50 µM and 303 µM and 78.7 µM | TGI (LOX IMVI melanoma): 384 µM and > 1250 µM and 661 µM | GI50 (SN12K1 renal): 133 µM and 290 µM | TGI (SN12K1 renal): 625 µM and > 1250 µM | TGI (786-0 renal): 593 µM | GI50 (HL-60(TB) leukemia): 144 µM and 420 µM | TGI (HL-60(TB) leukemia): 625 µM and > 1250 µM and 1070 µM | GI50 (HOP-18 NSCLC): > 625 µM | TGI (HOP-18 NSCLC): > 1250 µM | TGI (M14 melanoma): > 1250 µM
